{
  "source": "patent US20080206770A1",
  "about": "“SCREENING METHODS USED TO IDENTIFY COMPOUNDS THAT MODULATE SKIN STROMAL CELLS (FIBROBLASTS) ABILITY TO MODIFY FUNCTION OF EXTRACELLULAR MATRIX” (priority 2007, published 2008)",
  "key": {"Human dermal fibroblasts": {"tested_on": "Human dermal fibroblasts", "assay": "RT-PCR analysis of mRNA levels of ECM components after atRA treatment", "assay_type": "cell-based", "conditions": "fold induction (+) or suppression (−) vs control; 10^-7 M, 24 hours", "description": "Human dermal fibroblasts were grown in DMEM cell culture media containing 10% fetal bovine serum and 1% penicillin/streptomycin (Invitrogen). For all experiments, third-passage fibroblasts were used one day after reaching confluence. […] After 24 hour treatment RNA and protein was isolated and analyzed for the expression of components of ECM and transcriptional regulators.\nTotal RNA from various human tissues was purified using RNAwiz (Ambion, USA) and subjected to subsequent DNase I treatment using the DNA-Free kit (Ambion). Total RNA from cancer cells was purified by using 4PCRmini kit (Ambion). First-strand cDNAs were synthesized with Superscript III reverse transcriptase (Invitrogen, USA) and 5 μg of total RNA using oligo d(T) priming in a final reaction volume of 50 μL\nThe cDNA was amplified by PCR using the 2.5 U Hot-Firepol (Solis BioDyne, Estonia) and buffer Yellow (Naxo, Estonia). Reaction was performed in a 10 ul volume, using 0.5 ul cDNA as a template. Following primer sets (Table 21) were designed for this study:\nThe thermal cycling protocols were as follows: initial denaturation of template DNA and heat-activation of polymerase (15 min at 95° C.) followed by 40 cycles denaturation (30 sec at 95° C.) annealing (58° C.) and extension (90 sec). PCR products were analysed on a 1% agarose gel. For sequencing, PCR reactions were purified using PCR purification kit (Qiagen, USA) and subcloned into TOPO TA cloning vector. Fragments were sequenced at GATC Biotech sequencing services (Germany)."}, "[1]": {"tested_on": "dermal fibroblasts isolated from 17 individuals", "assay": "Real time RT-PCR of ECM components, nuclear hormone receptors and coregulators in fibroblasts from 17 individuals", "assay_type": "cell-based, human", "description": "Total RNA was extracted from cells using RNA aqueous kit (Ambion, USA). First-strand cDNAs were synthesized with Superscript III reverse transcriptase (Invitrogen, USA) and 1 μg of total RNA using oligo d(T) priming in a final reaction volume of 40 μL.\nLevels of specific mRNAs were measured by real-time RT-PCR using Platinum SYBR Green qPCR SuperMix UDG (Invitrogen) according the protocol on the LightCycler 2.0 (Roche, US). The cycling program steps were: for one cycle 50° C. 2 min, for one cycle 95° C. 2 min and for 45 cycles: 95° C. 10 s, 60° C. 10 s, 72° C. 10 s. All samples were run in triplicates. Results were analyzed with the comparative Ct method (from Applied Biosystems manual; Livak and Schmittgen, 2001). Every sample was normalized for the housekeeping gene GAPDH. Transcript levels in the atRA and TGFb1 treated samples were compared to control samples."}, "[2]": {"conditions": "fibroblasts from 17 individuals, 1 μM, 24 hours"}},
  "data": [
    {"smiles": "CC1=C(/C=C/C(C)=C/C=C/C(C)=C/C(=O)O)C(C)(C)CCC1", "note": "[all trans retinoic acid, all-trans retinoic acid]", "values": [
      {"measurement": "COL1A1 mRNA level", "setting": "Human dermal fibroblasts", "result": 2, "unit": "fold"},
      {"measurement": "COL1A2 mRNA level", "setting": "Human dermal fibroblasts", "result": 4, "unit": "fold"},
      {"measurement": "COL2A1 mRNA level", "setting": "Human dermal fibroblasts", "result": 5, "unit": "fold"},
      {"measurement": "COL3A1 mRNA level", "setting": "Human dermal fibroblasts", "result": 2, "unit": "fold"},
      {"measurement": "COL4A1 mRNA level", "setting": "Human dermal fibroblasts", "result": 1, "unit": "fold"},
      {"measurement": "COL4A2 mRNA level", "setting": "Human dermal fibroblasts", "result": 3, "unit": "fold"},
      {"measurement": "COL4A3 mRNA level", "setting": "Human dermal fibroblasts", "result": 2, "unit": "fold"},
      {"measurement": "COL4A4 mRNA level", "setting": "Human dermal fibroblasts", "result": 1, "unit": "fold"},
      {"measurement": "COL7A1 mRNA level", "setting": "Human dermal fibroblasts", "result": 2, "unit": "fold"},
      {"measurement": "Elastin ELN mRNA level", "setting": "Human dermal fibroblasts", "result": 4, "unit": "fold"},
      {"measurement": "FBLN5 mRNA level", "setting": "Human dermal fibroblasts", "result": 2, "unit": "fold"},
      {"measurement": "FN 1 mRNA level", "setting": "Human dermal fibroblasts", "result": 1, "unit": "fold"},
      {"measurement": "Fibrillin-1 mRNA level", "setting": "Human dermal fibroblasts", "result": 1, "unit": "fold"},
      {"measurement": "Fibrillin-2 mRNA level", "setting": "Human dermal fibroblasts", "result": 1, "unit": "fold"},
      {"measurement": "Fibulin-2 mRNA level", "setting": "Human dermal fibroblasts", "result": 3, "unit": "fold"},
      {"measurement": "Lumican mRNA level", "setting": "Human dermal fibroblasts", "result": 1, "unit": "fold"},
      {"measurement": "Lysyl oxidase mRNA level", "setting": "Human dermal fibroblasts", "result": 8, "unit": "fold"},
      {"measurement": "MMP2 mRNA level", "setting": "Human dermal fibroblasts", "result": 2, "unit": "fold"},
      {"measurement": "MMP7 mRNA level", "setting": "Human dermal fibroblasts", "result": 2, "unit": "fold"},
      {"measurement": "MMP9 mRNA level", "setting": "Human dermal fibroblasts", "result": 2, "unit": "fold"},
      {"measurement": "MMP12 mRNA level", "setting": "Human dermal fibroblasts", "result": 2, "unit": "fold"},
      {"measurement": "MMP13 mRNA level", "setting": "Human dermal fibroblasts", "result": 5, "unit": "fold"},
      {"measurement": "MMP19 mRNA level", "setting": "Human dermal fibroblasts", "result": 1, "unit": "fold"},
      {"measurement": "MMP20 mRNA level", "setting": "Human dermal fibroblasts", "result": 1, "unit": "fold"},
      {"measurement": "MMP-11 mRNA level", "setting": "Human dermal fibroblasts", "result": 7, "unit": "fold"},
      {"measurement": "TIMP1 mRNA level", "setting": "Human dermal fibroblasts", "result": 2, "unit": "fold"},
      {"measurement": "TIMP3 mRNA level", "setting": "Human dermal fibroblasts", "result": 3, "unit": "fold"},
      {"measurement": "TIMP4 mRNA level", "setting": "Human dermal fibroblasts", "result": 1, "unit": "fold"},
      {"measurement": "aggrecan mRNA level", "setting": "Human dermal fibroblasts", "result": 1, "unit": "fold"},
      {"measurement": "decorin mRNA level", "setting": "Human dermal fibroblasts", "result": 6, "unit": "fold"},
      {"measurement": "fibromodulin mRNA level", "setting": "Human dermal fibroblasts", "result": 1, "unit": "fold"},
      {"measurement": "variation between individuals of effect on expression of nuclear hormone receptors, compared with co-regulators", "setting": "[1]; cells treated with atRA, 17 individuals", "result": "less variation"},
      {"measurement": "CBP expression in RA treatment compared to control, from-to between individuals", "setting": "[1]; [2]", "result": "(from −2.15 to 3.17) fold"},
      {"measurement": "COL1A1 expression in RA treatment compared to control, from-to between individuals", "setting": "[1]; [2]", "result": "(from −6.25 to 3.25) fold"},
      {"measurement": "COL1A2 expression in RA treatment compared to control, from-to between individuals", "setting": "[1]; [2]", "result": "(from −3.13 to 1.83) fold"},
      {"measurement": "COL3A1 expression in RA treatment compared to control, from-to between individuals", "setting": "[1]; [2]", "result": "(from −2.28 to 2.89) fold"},
      {"measurement": "COL4A1 expression in RA treatment compared to control, from-to between individuals", "setting": "[1]; [2]", "result": "(from −3.97 to 2.18) fold"},
      {"measurement": "COL5A1 expression in RA treatment compared to control, from-to between individuals", "setting": "[1]; [2]", "result": "(from −4.76 to 2.39) fold"},
      {"measurement": "COL5A2 expression in RA treatment compared to control, from-to between individuals", "setting": "[1]; [2]", "result": "(from −1.41 to 2.94) fold"},
      {"measurement": "CTGF expression in RA treatment compared to control, from-to between individuals", "setting": "[1]; [2]", "result": "(from −2.4 to 2.64) fold"},
      {"measurement": "ELN expression in RA treatment compared to control, from-to between individuals", "setting": "[1]; [2]", "result": "(from −2.44 to 3.02) fold"},
      {"measurement": "FN 1 transcr.v.1 expression in RA treatment compared to control, from-to between individuals", "setting": "[1]; [2]", "result": "(from −3.63 to 1.14) fold"},
      {"measurement": "Individual variation of gene expression in RA treatment: CBP", "setting": "[1]; [2]", "result": 5.32, "unit": "fold"},
      {"measurement": "Individual variation of gene expression in RA treatment: COL1A1", "setting": "[1]; [2]", "result": 9.5, "unit": "fold"},
      {"measurement": "Individual variation of gene expression in RA treatment: COL1A2", "setting": "[1]; [2]", "result": 4.96, "unit": "fold"},
      {"measurement": "Individual variation of gene expression in RA treatment: COL3A1", "setting": "[1]; [2]", "result": 5.17, "unit": "fold"},
      {"measurement": "Individual variation of gene expression in RA treatment: COL4A1", "setting": "[1]; [2]", "result": 6.15, "unit": "fold"},
      {"measurement": "Individual variation of gene expression in RA treatment: COL4A4", "setting": "[1]; [2]", "result": 1.63, "unit": "fold"},
      {"measurement": "Individual variation of gene expression in RA treatment: COL5A1", "setting": "[1]; [2]", "result": 7.15, "unit": "fold"},
      {"measurement": "Individual variation of gene expression in RA treatment: COL5A2", "setting": "[1]; [2]", "result": 4.35, "unit": "fold"},
      {"measurement": "Individual variation of gene expression in RA treatment: CTGF", "setting": "[1]; [2]", "result": 5.04, "unit": "fold"},
      {"measurement": "Individual variation of gene expression in RA treatment: ELN", "setting": "[1]; [2]", "result": 5.46, "unit": "fold"},
      {"measurement": "Individual variation of gene expression in RA treatment: FN 1 transcr.v.1", "setting": "[1]; [2]", "result": 4.77, "unit": "fold"},
      {"measurement": "Individual variation of gene expression in RA treatment: MMP1, collagenase 1", "setting": "[1]; [2]", "result": 7.09, "unit": "fold"}
    ]}
  ]
}
